# Assay results published in ChEMBL document CHEMBL1201862, “PubChem BioAssay data set” (2004).
#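 Step 1: Grow cells in 96-well plates. Step 2: Expose to compound for 48 hours at 5 concentrations. Step 3: Interpolate endpoints linearly; if unreached, use highest concentration. At the GI50, growth is halved.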 Calls of active or inactive are those of the source. Cut-off read from the data, not from the text of the source: active = GI50 up to about 1.1 µM and inactive = higher.
# Experiments:
# Experiment in all cases: inhibition of tumour cell growth, NCI panel, 48 h
# SR = tested on: SR
# NCI-H460 = tested on: NCI-H460
# NCI-H226 = tested on: NCI-H226
# TK-10 = tested on: TK-10
# DU-145 = tested on: DU-145
# U-251 = tested on: U-251
# MCF7 = tested on: MCF7
# CCRF-CEM = tested on: CCRF-CEM
# SK-MEL-5 = tested on: SK-MEL-5
# SF-268 = tested on: SF-268
# NCI-H522 = tested on: NCI-H522
# NCI/ADR-RES = tested on: NCI/ADR-RES
# HCC 2998 = tested on: HCC 2998
# UO-31 = tested on: UO-31
# A498 = tested on: A498
# OVCAR-3 = tested on: OVCAR-3
# UACC-257 = tested on: UACC-257
# T47D = tested on: T47D
# HT-29 = tested on: HT-29
# Hs-578T = tested on: Hs-578T
# MOLT-4 = tested on: MOLT-4
# K562 = tested on: K562
# ACHN = tested on: ACHN
# RPMI-8226 = tested on: RPMI-8226
# MDA-N = tested on: MDA-N
# 786-0 = tested on: 786-0
# SF-539 = tested on: SF-539
# OVCAR-8 = tested on: OVCAR-8
# OVCAR-4 = tested on: OVCAR-4
# HCT-116 = tested on: HCT-116
# Malme-3M = tested on: Malme-3M
# SK-MEL-2 = tested on: SK-MEL-2
# UACC-62 = tested on: UACC-62
# SNB-75 = tested on: SNB-75
# BT-549 = tested on: BT-549
# RXF 393 = tested on: RXF 393
# HL-60 = tested on: HL-60
# M14 = tested on: M14
# COLO 205 = tested on: COLO 205
# OVCAR-5 = tested on: OVCAR-5
# SK-OV-3 = tested on: SK-OV-3
# MDA-MB-435 = tested on: MDA-MB-435
# A549 = tested on: A549
# HOP-62 = tested on: HOP-62
# SN12C = tested on: SN12C
# IGROV-1 = tested on: IGROV-1
# PC-3 = tested on: PC-3
# SF-295 = tested on: SF-295
# NCI-H23 = tested on: NCI-H23
# EKVX = tested on: EKVX
# SK-MEL-28 = tested on: SK-MEL-28
# KM12 = tested on: KM12
# MDA-MB-231 = tested on: MDA-MB-231
# CAKI-1 = tested on: CAKI-1
# HOP-92 = tested on: HOP-92
# HCT-15 = tested on: HCT-15
# SW-620 = tested on: SW-620
# SNB-19 = tested on: SNB-19
# LOX IMVI = tested on: LOX IMVI
smiles,measurement,setting,value
CC(=O)OC[C@@]1(C)[C@@H]2[C@@H]3[C@@]4(CO[C@]3(C)C(=O)[C@@]3(O)C[C@H](C)[C@H](OC(C)=O)[C@@H]3[C@H]4OC(C)=O)[C@H](OC(=O)c3ccccc3)C[C@@H]21,GI50,SR,> 100 µM (inactive)
same,GI50,NCI-H460,> 100 µM (inactive)
same,GI50,NCI-H226,> 100 µM (inactive)
same,GI50,TK-10,> 100 µM (inactive)
same,GI50,DU-145,> 100 µM (inactive)
same,GI50,U-251,> 100 µM (inactive)
same,GI50,MCF7,> 100 µM (inactive)
same,GI50,CCRF-CEM,> 100 µM (inactive)
same,GI50,SK-MEL-5,> 100 µM (inactive)
same,GI50,SF-268,> 100 µM (inactive)
same,GI50,NCI-H522,> 100 µM (inactive)
same,GI50,NCI/ADR-RES,> 100 µM (inactive)
same,GI50,HCC 2998,> 100 µM (inactive)
same,GI50,UO-31,> 100 µM (inactive)
same,GI50,A498,> 100 µM (inactive)
same,GI50,OVCAR-3,> 100 µM (inactive)
same,GI50,UACC-257,> 100 µM (inactive)
same,GI50,T47D,> 100 µM (inactive)
same,GI50,HT-29,> 100 µM (inactive)
same,GI50,Hs-578T,> 100 µM (inactive)
same,GI50,MOLT-4,> 100 µM (inactive)
same,GI50,K562,> 100 µM (inactive)
same,GI50,ACHN,> 100 µM (inactive)
same,GI50,RPMI-8226,> 100 µM (inactive)
same,GI50,MDA-N,> 100 µM (inactive)
same,GI50,786-0,> 100 µM (inactive)
same,GI50,SF-539,> 100 µM (inactive)
same,GI50,OVCAR-8,> 100 µM (inactive)
same,GI50,OVCAR-4,> 100 µM (inactive)
same,GI50,HCT-116,> 100 µM (inactive)
same,GI50,Malme-3M,> 100 µM (inactive)
same,GI50,SK-MEL-2,> 100 µM (inactive)
same,GI50,UACC-62,> 100 µM (inactive)
same,GI50,SNB-75,> 100 µM (inactive)
same,GI50,BT-549,> 100 µM (inactive)
same,GI50,RXF 393,> 100 µM (inactive)
same,GI50,HL-60,> 100 µM (inactive)
same,GI50,M14,> 100 µM (inactive)
same,GI50,COLO 205,> 100 µM (inactive)
same,GI50,OVCAR-5,> 100 µM (inactive)
same,GI50,SK-OV-3,> 100 µM (inactive)
same,GI50,MDA-MB-435,> 100 µM (inactive)
same,GI50,A549,> 100 µM (inactive)
same,GI50,HOP-62,> 100 µM (inactive)
same,GI50,SN12C,> 100 µM (inactive)
same,GI50,IGROV-1,> 100 µM (inactive)
same,GI50,PC-3,> 100 µM (inactive)
same,GI50,SF-295,> 100 µM (inactive)
same,GI50,NCI-H23,> 100 µM (inactive)
same,GI50,EKVX,> 100 µM (inactive)
same,GI50,SK-MEL-28,> 100 µM (inactive)
same,GI50,KM12,> 100 µM (inactive)
same,GI50,MDA-MB-231,> 100 µM (inactive)
same,GI50,CAKI-1,> 100 µM (inactive)
same,GI50,HOP-92,> 100 µM (inactive)
same,GI50,HCT-15,> 100 µM
same,GI50,SW-620,> 100 µM (inactive)
same,GI50,SNB-19,> 100 µM (inactive)
same,GI50,LOX IMVI,> 100 µM (inactive)
C=CCSS/C=C/C[S+]([O-])CC=C (stereo not drawn) [AJOENE],GI50,SR,12.4 µM (inactive)
same,GI50,NCI-H460,35.8 µM (inactive)
same,GI50,NCI-H226,41.3 µM (inactive)
same,GI50,TK-10,> 85.7 µM (inactive)
same,GI50,DU-145,68.2 µM (inactive)
same,GI50,U-251,60 µM (inactive)
same,GI50,MCF7,44.2 µM (inactive)
same,GI50,CCRF-CEM,3.44 µM (inactive)
same,GI50,SK-MEL-5,36.6 µM (inactive)
same,GI50,SF-268,25 µM (inactive)
same,GI50,NCI-H522,16.7 µM (inactive)
same,GI50,NCI/ADR-RES,26.2 µM (inactive)
same,GI50,HCC 2998,63.1 µM (inactive)
same,GI50,UO-31,37.8 µM (inactive)
same,GI50,A498,> 100 µM (inactive)
same,GI50,OVCAR-3,37.1 µM (inactive)
same,GI50,UACC-257,50.9 µM (inactive)
same,GI50,T47D,> 56.1 µM (inactive)
same,GI50,HT-29,29.9 µM (inactive)
same,GI50,Hs-578T,26.4 µM (inactive)
same,GI50,MOLT-4,3.95 µM (inactive)
same,GI50,K562,5.83 µM (inactive)
same,GI50,ACHN,51.1 µM (inactive)
same,GI50,RPMI-8226,10.4 µM (inactive)
same,GI50,MDA-N,18.8 µM (inactive)
same,GI50,786-0,18.3 µM (inactive)
same,GI50,SF-539,25 µM (inactive)
same,GI50,OVCAR-8,18.5 µM (inactive)
same,GI50,OVCAR-4,> 54.8 µM (inactive)
same,GI50,HCT-116,13.1 µM (inactive)
same,GI50,Malme-3M,49.2 µM (inactive)
same,GI50,SK-MEL-2,> 52.2 µM (inactive)
same,GI50,UACC-62,36.3 µM (inactive)
same,GI50,SNB-75,70 µM (inactive)
same,GI50,BT-549,25.6 µM (inactive)
same,GI50,RXF 393,24.9 µM (inactive)
same,GI50,HL-60,5.05 µM (inactive)
same,GI50,M14,20.9 µM (inactive)
same,GI50,COLO 205,24.7 µM (inactive)
same,GI50,OVCAR-5,36.6 µM (inactive)
same,GI50,SK-OV-3,64 µM (inactive)
same,GI50,MDA-MB-435,18.2 µM (inactive)
same,GI50,A549,61 µM (inactive)
same,GI50,HOP-62,> 100 µM (inactive)
same,GI50,SN12C,26 µM (inactive)
same,GI50,IGROV-1,43.4 µM (inactive)
same,GI50,PC-3,39.1 µM (inactive)
same,GI50,SF-295,58.7 µM (inactive)
same,GI50,NCI-H23,46.6 µM (inactive)
same,GI50,EKVX,> 100 µM (inactive)
same,GI50,SK-MEL-28,20.7 µM (inactive)
same,GI50,KM12,57.8 µM (inactive)
same,GI50,MDA-MB-231,25.2 µM (inactive)
same,GI50,CAKI-1,26.9 µM (inactive)
same,GI50,HOP-92,48.3 µM (inactive)
same,GI50,HCT-15,35.5 µM
same,GI50,SW-620,7.8 µM (inactive)
same,GI50,SNB-19,> 100 µM (inactive)
same,GI50,LOX IMVI,14.6 µM (inactive)
